Legend:
Staphylococcus aureus = test: Antibacterial activity by Oxford cup method with xanthan gum as interfering substance; type: cell-based; conditions: 0.20% LAE, xanthan gum present, compared with no xanthan gum
Description: In order to test the performance of the HPβCD LAE clathrate prepared in Example 1, the antibacterial activity of the HPβCD/LAE clathrate in the presence of an anionic polysaccharide (xanthan gum) as an interfering substance was measured by an Oxford cup method. Groups A to G were set up, and each group had 3 parallel experiments. 15 mL of nutrient agar was added to each petri dish, cooled and solidified, and 100 μL of a Staphylococcus aureus solution (10^5 CFU/mL) was spread on each petri dish. […] Each group was placed with an Oxford cup, and 130 μL of an antibacterial solution was added to each Oxford cup; each of the Oxford cups was diffused in a 4° C. refrigerator for 24 h, cultured at 37° C. for 24 h, and an inhibition zone diameter (IZD) was measured with a micrometer. The mass percentages of the antibacterial solution added in Groups A to G were as follows: A: 0.20% LAE-no xanthan gum; B: 0.20% LAE; C: 0.08% HPβCD/LAE clathrate-0.02% LAE; D: 0.16% HPβCD/LAE clathrate-0.04% LAE; E: 0.40% HPβCD/LAE clathrate-0.10% LAE; F: 0.60% HPβCD/LAE clathrate-0.15% LAE; and G: 0.80% HPβCD/LAE clathrate-0.20% LAE. The […] was the raw material in Example 1.

[1] = Low-temperature storage stability at 4° C. (appearance); type: physicochemical
Description: (§1) The pH stability of a system was characterized by measuring turbidity and particle size. A 1% w/v LAE aqueous solution and an HPβCD/LAE clathrate aqueous solution (4% w/v) containing a same amount of 1% w/v LAE were prepared, respectively. The pH values of the LAE aqueous solution and the HPβCD/LAE clathrate aqueous solution were adjusted to 1, 3, 5, 7, 9, and 11 with 0.01 mol/L to 0.5 mol/L of sodium hydroxide and hydrochloric acid solutions, respectively. After allowing to stand at room temperature for 24 h, the absorbance at 600 nm of the LAE aqueous solutions and the HPβCD/LAE clathrate aqueous solutions with different pH values were measured with a UV spectrophotometer. The absorbance was used to represent a turbidity of the solution, while pure water was used as a reference. The particle size of the solution was measured with a ZS90 nanometer particle size analyzer. Photographs were taken to record the changes of the above solutions stored at 4° C. for 0 h, 24 h, 7 d, and 35 d to characterize the low-temperature storage stability of the samples.

[2] = pH range; cited from earlier work
[3] = in water at room temperature; cited from earlier work
[4] = pH stability by turbidity and particle size; type: physicochemical; conditions: aqueous solution containing 1% w/v LAE, pH 1 to 11, room temperature 24 h
Description: as §1

For `CCCCCCCCCCCC(=O)N[C@@H](CCCN=C(N)N)C(=O)OCC.Cl` [LAE, ethyl lauroyl arginate hydrochloride], the inhibition zone (Staphylococcus aureus) was “significantly reduced the inhibition zone of LAE”, the low-temperature storage appearance ([1]; prolonged storage at low temperature (4° C., up to 35 d)) was “eventually fully precipitated” and the low-temperature storage appearance ([1]; storage at low temperature (4° C.) for 24 h, pH 1 to 11) was “except for the solution of pH=7, all other LAE solutions had obvious crystallization”. The chemical stability [2] was “desirable chemical stability at a pH value of 3 to 7”, the solubility [3] was “less than 2%” and the “pH stability (turbidity, particle size)” value [4] was “obviously aggregated outside the pH value of 3 to 7”.
